{
  "source": "paper PMC11960969",
  "about": "“Mdga2 deficiency leads to an aberrant activation of BDNF/TrkB signaling that underlies autism-relevant synaptic and behavioral changes in mice” (PLOS Biology, 2025)",
  "key": {"ASD animal models": {"test_system": "ASD animal models", "settings": "VRK3-deficient mice and D2-deficient mice with early-life stress; cited from earlier work"}, "TrkB signaling pathway": {"test_system": "TrkB signaling pathway", "test": "Immunoblotting of TrkB signaling in hippocampal neurons treated with NLGN1 siRNA", "format": "cell-based, mouse", "settings": "NLGN1 knockdown in MDGA2-deficient hippocampal neurons, n = 4", "from_the_text": "NLGN1-targeting siRNA and scrambled control siRNA were synthesized by GenePharma (Shanghai, China). The sequences were as follows: NLGN1 siRNA sense: 5′-[…]-[…]-3′, NLGN1 siRNA antisense: 5′-[…]-3′. Scrambled control siRNA sense: 5′-[…]-3′, Scrambled control siRNA antisense: 5′-[…]-3′\nPlasmids were transfected into HEK293T, SH-SY5Y, and HeLa cells using Turbofect transfection reagent (ThermoFisher), following the manufacturer’s instructions. Primary neurons were transfected with plasmids using Lipofectamine LTX (ThermoFisher, Cat# 15338100) or EntransterTM-H4000 transfection reagent (Engreen Bio-system, Cat# 4000-6), and with siRNAs using Lipofectamine RNAiMAX (ThermoFisher, Cat# 13778100), following manufacturers’ protocols. The transfection efficiency of both Lipofectamine LTX and EntransterTM-H4000 exceeded 50%. […]\nSupplementary file pbio.3003047.s003.tif: S3 Fig MDGA2 competes with brain-derived neurotrophic factor (BDNF) for tyrosine kinase B (TrkB) binding. […] The pTyr levels were quantified by densitometry, normalized to total TrkB levels, and then compared to those of WT littermates. n = 4 per group. […] Immunoprecipitated BDNF levels in Het samples were quantified by densitometry, normalized to input levels, and compared to WT controls (set to one arbitrary units). n = 4 per group. […]"}, "TrkB": {"test_system": "TrkB", "test": "Biotin pull-down of TrkB after intrahippocampal injection of biotin-peptides", "format": "in vivo", "settings": "1 μg biotin-conjugated peptide bilaterally into mouse hippocampus, 24 h"}},
  "data": [
    {"molecule": "O=c1cc(-c2ccccc2)oc2c(O)c(O)ccc12", "note": "[7.8-dihydroxyflavone, reference compound]", "values": [
      {"measurement": "social deficits and repetitive self-grooming behavior", "setting": "ASD animal models", "result": "rescued both social deficits and repetitive self-grooming behavior"}
    ]},
    {"molecule": "NLGN1 siRNA: NLGN1-targeting siRNA, sense 5′-CCUGUGUGGU-UCACUAAUATT-3′ (sense CCUGUGUGGUUCACUAAUATT; antisense UAUUAGUGAACCACACAGGTT; chemistry not given here)", "values": [
      {"measurement": "effect on TrkB signaling pathway", "setting": "TrkB signaling pathway", "result": "treated with either vehicle or NLGN1 siRNA"}
    ]},
    {"molecule": "NADRSGSKEGFYMYIETSRPRLEGE [MDGA2-P1, peptide of MDGA2 MAM domain, aa 787–811, biotin-labeled]", "values": [
      {"measurement": "binding to TrkB in vivo (biotin pull-down)", "setting": "TrkB", "result": "not P1, bound to TrkB in vivo"}
    ]}
  ]
}
